# Test results as given in PubChem BioAssay AID342 (DTP/NCI, 2004).
# Where “and” joins values, the source holds several entries; their conditions need not be identical. Identical values can stand only once.
# Test system: Swiss mice, Sarcoma 180 sc, mean tumor weight T/C
# Test: NCI In Vivo Anticancer Drug Screen. Data for tumor model Sarcoma 180 (subcutaneous) in Swiss mice
# Details: endpoint: mean tumor weight, higher = larger tumour
# Procedure, shortened: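 Transplantable tumors were established in mice, compound was given, then survival or tumor size was recorded. The treated value was divided by the vehicle-control value.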
# [1] = dose: 50.0 mg/kg/injection, schedule: Q#A X014 (ip), vehicle: methylcellulose (MC)
# [2] = dose: 250.0 mg/kg/injection, schedule: Q01DX007 (ip), vehicle: carboxymethylcellulose (CMC)
# [3] = dose: 2.0 mg/kg/injection, schedule: Q01DX007 (ip), vehicle: carboxymethylcellulose (CMC)
structure (smiles),measurement,setting,value
CN(C)/N=N/c1nc[nH]c1C(N)=O,T/C,"dose: 11.0 mg/kg/injection, schedule: Q01DX007 (ip), vehicle: saline",58 % of control
same,T/C,"dose: 12.5 mg/kg/injection, schedule: Q#A X014 (ip), vehicle: methylcellulose (MC)",68 % of control
same,T/C,"dose: 20.0 mg/kg/injection, schedule: Q01DX007 (ip), vehicle: carboxymethylcellulose (CMC)",89 % of control
same,T/C,"dose: 22.0 mg/kg/injection, schedule: Q01DX007 (ip), vehicle: saline",62 % of control
same,T/C,"dose: 25.0 mg/kg/injection, schedule: Q#A X014 (ip), vehicle: methylcellulose (MC)",43 % of control
same,T/C,"dose: 40.0 mg/kg/injection, schedule: Q01DX007 (ip), vehicle: carboxymethylcellulose (CMC)",62 % of control
same,T/C,"dose: 44.0 mg/kg/injection, schedule: Q01DX007 (ip), vehicle: carboxymethylcellulose (CMC)",23 % of control and 43 % of control
same,T/C,[1],29 % of control
same,T/C,"dose: 66.0 mg/kg/injection, schedule: Q01DX007 (ip), vehicle: carboxymethylcellulose (CMC)",28 % of control and 53 % of control
same,T/C,"dose: 100.0 mg/kg/injection, schedule: Q01DX007 (ip), vehicle: carboxymethylcellulose (CMC)",28 % of control and 29 % of control
same,T/C,"dose: 150.0 mg/kg/injection, schedule: Q01DX007 (ip), vehicle: carboxymethylcellulose (CMC)",19 % of control and 23 % of control
same,T/C,"dose: 160.0 mg/kg/injection, schedule: Q01DX007 (ip), vehicle: carboxymethylcellulose (CMC)",51 % of control and 73 % of control
same,T/C,"dose: 225.0 mg/kg/injection, schedule: Q01DX007 (ip), vehicle: carboxymethylcellulose (CMC)",21 % of control
same,T/C,"dose: 320.0 mg/kg/injection, schedule: Q01DX007 (ip), vehicle: carboxymethylcellulose (CMC)",39 % of control and 45 % of control
same,T/C,"dose: 640.0 mg/kg/injection, schedule: Q01DX007 (ip), vehicle: carboxymethylcellulose (CMC)",25 % of control
O=[N+]([O-])c1cccc2nsnc12,T/C,"dose: 12.5 mg/kg/injection, schedule: Q01DX007 (ip), vehicle: carboxymethylcellulose (CMC)",114 % of control
same,T/C,"dose: 25.0 mg/kg/injection, schedule: Q01DX007 (ip), vehicle: carboxymethylcellulose (CMC)",174 % of control
C[C@H](N)C(=O)N[C@@H]1[C@H]2C(=C(O)C[C@@H](O)[C@@H]2O)C(=O)O[C@@H]1C,T/C,[2],66 % of control
same,T/C,"dose: 500.0 mg/kg/injection, schedule: Q01DX007 (ip), vehicle: carboxymethylcellulose (CMC)",42 % of control
same,T/C,"dose: 1000.0 mg/kg/injection, schedule: Q01DX007 (ip), vehicle: carboxymethylcellulose (CMC)",12 % of control
CNNCc1ccc(C(=O)NC(C)C)cc1,T/C,"dose: 100.0 mg/kg/injection, schedule: Q01DX007 (ip), vehicle: saline",26 % of control
same,T/C,"dose: 125.0 mg/kg/injection, schedule: Q01DX007 (ip), vehicle: carboxymethylcellulose (CMC)",36 % of control
same,T/C,"dose: 148.0 mg/kg/injection, schedule: Q01DX007 (ip), vehicle: saline",22 % of control
same,T/C,"dose: 222.0 mg/kg/injection, schedule: Q01DX007 (ip), vehicle: saline",16 % of control
same,T/C,[2],15 % of control
same,T/C,"dose: 333.0 mg/kg/injection, schedule: Q01DX007 (ip), vehicle: saline",16 % of control
same,T/C,"dose: 500.0 mg/kg/injection, schedule: Q01DX007 (ip), vehicle: saline",8 % of control
Nc1nc(=S)c2[nH]cnc2[nH]1,T/C,"dose: 0.06 mg/kg/injection, schedule: Q#A X014 (ip), vehicle: carboxymethylcellulose (CMC)",72 % of control
same,T/C,"dose: 0.12 mg/kg/injection, schedule: Q01DX007 (ip), vehicle: carboxymethylcellulose (CMC)",78 % of control
same,T/C,"dose: 0.25 mg/kg/injection, schedule: Q01DX007 (ip), vehicle: carboxymethylcellulose (CMC)",82 % of control
same,T/C,"dose: 0.25 mg/kg/injection, schedule: Q#A X014 (ip), vehicle: carboxymethylcellulose (CMC)",89 % of control
same,T/C,"dose: 0.5 mg/kg/injection, schedule: Q01DX007 (ip), vehicle: carboxymethylcellulose (CMC)",97 % of control
same,T/C,"dose: 0.6 mg/kg/injection, schedule: Q01DX007 (ip), vehicle: carboxymethylcellulose (CMC)",49 % of control
same,T/C,"dose: 0.75 mg/kg/injection, schedule: Q01DX007 (ip), vehicle: carboxymethylcellulose (CMC)",78 % of control
same,T/C,"dose: 1.0 mg/kg/injection, schedule: Q01DX007 (ip), vehicle: carboxymethylcellulose (CMC)",22 % of control and 37 % of control
same,T/C,"dose: 1.0 mg/kg/injection, schedule: Q#A X014 (ip), vehicle: carboxymethylcellulose (CMC)",46 % of control
same,T/C,"dose: 1.5 mg/kg/injection, schedule: Q01DX007 (ip), vehicle: carboxymethylcellulose (CMC)",33 % of control
same,T/C,[3],37 % of control and 50 % of control
same,T/C,"dose: 3.0 mg/kg/injection, schedule: Q01DX007 (ip), vehicle: carboxymethylcellulose (CMC)",25 % of control
same,T/C,"dose: 4.0 mg/kg/injection, schedule: Q#A X014 (ip), vehicle: carboxymethylcellulose (CMC)",23 % of control
same,T/C,"dose: 6.7 mg/kg/injection, schedule: Q01DX007 (ip), vehicle: carboxymethylcellulose (CMC)",10 % of control and 15 % of control
same,T/C,"dose: 10.0 mg/kg/injection, schedule: Q01DX007 (ip), vehicle: carboxymethylcellulose (CMC)",3 % of control
same,T/C,"dose: 187.5 mg/kg/injection, schedule: Q#A X014 (ip), vehicle: carboxymethylcellulose (CMC)",58 % of control
same,T/C,"dose: 375.0 mg/kg/injection, schedule: Q#A X014 (ip), vehicle: carboxymethylcellulose (CMC)",51 % of control
same,T/C,"dose: 750.0 mg/kg/injection, schedule: Q#A X014 (ip), vehicle: carboxymethylcellulose (CMC)",35 % of control
same,T/C,"dose: 1500.0 mg/kg/injection, schedule: Q#A X014 (ip), vehicle: carboxymethylcellulose (CMC)",16 % of control
O=CNC(Cc1ccc(N(CCCl)CCCl)cc1)C(=O)O (centres undefined),T/C,"dose: 22.0 mg/kg/injection, schedule: Q#A X014 (ip), vehicle: methylcellulose (MC)",61 % of control
same,T/C,"dose: 33.0 mg/kg/injection, schedule: Q#A X014 (ip), vehicle: methylcellulose (MC)",60 % of control
same,T/C,[1],25 % of control
same,T/C,"dose: 75.0 mg/kg/injection, schedule: Q#A X014 (ip), vehicle: methylcellulose (MC)",11 % of control
CN(C)c1ccc(C(C#N)C(C#N)c2ccccc2)cc1 (centres undefined),T/C,"dose: 8.85 mg/kg/injection, schedule: Q#A X014 (ip), vehicle: methylcellulose (MC)",69 % of control and 84 % of control
same,T/C,"dose: 26.6 mg/kg/injection, schedule: Q#A X014 (ip), vehicle: methylcellulose (MC)",4 % of control
same,T/C,"dose: 40.0 mg/kg/injection, schedule: Q#A X014 (ip), vehicle: methylcellulose (MC)",56 % of control
NC1=CC(=O)c2ccccc2C1=O,T/C,"dose: 31.0 mg/kg/injection, schedule: Q01DX007 (ip), vehicle: other",73 % of control
same,T/C,"dose: 62.0 mg/kg/injection, schedule: Q01DX007 (ip), vehicle: other",83 % of control
CCC(=O)NC,T/C,"dose: 1000.0 mg/kg/injection, schedule: Q01DX007 (ip), vehicle: other",41 % of control and 63 % of control
same,T/C,"dose: 1250.0 mg/kg/injection, schedule: Q01DX007 (ip), vehicle: other",14 % of control and 33 % of control
C[C@]12CC[C@H](O)CC1=CC[C@@H]1[C@@H]2CC[C@]2(C)c3nc4ccccc4cc3C[C@@H]12,T/C,"dose: 15.6 mg/kg/injection, schedule: Q01DX007 (sc), vehicle: saline",93 % of control
same,T/C,"dose: 62.5 mg/kg/injection, schedule: Q01DX007 (sc), vehicle: saline",57 % of control
same,T/C,"dose: 125.0 mg/kg/injection, schedule: Q01DX007 (sc), vehicle: saline",95 % of control
same,T/C,"dose: 250.0 mg/kg/injection, schedule: Q01DX007 (sc), vehicle: saline",66 % of control
same,T/C,"dose: 500.0 mg/kg/injection, schedule: Q01DX007 (sc), vehicle: saline",93 % of control
O=C1NC(=O)C2(CCCc3ccc(N(CCCl)CCCl)cc32)N1 (centres undefined),T/C,"dose: 16.0 mg/kg/injection, schedule: Q01DX007 (ip), vehicle: other",70 % of control
same,T/C,"dose: 16.0 mg/kg/injection, schedule: Q01DX007 (ip), vehicle: saline",67 % of control
same,T/C,"dose: 24.0 mg/kg/injection, schedule: Q01DX007 (ip), vehicle: other",107 % of control
same,T/C,"dose: 24.0 mg/kg/injection, schedule: Q01DX007 (ip), vehicle: saline",85 % of control
same,T/C,"dose: 36.0 mg/kg/injection, schedule: Q01DX007 (ip), vehicle: other",61 % of control
same,T/C,"dose: 36.0 mg/kg/injection, schedule: Q01DX007 (ip), vehicle: saline",75 % of control
same,T/C,"dose: 55.0 mg/kg/injection, schedule: Q01DX007 (ip), vehicle: saline",52 % of control
same,T/C,"dose: 125.0 mg/kg/injection, schedule: Q01DX007 (ip), vehicle: saline",29 % of control
same,T/C,"dose: 188.0 mg/kg/injection, schedule: Q01DX007 (ip), vehicle: other",65 % of control
same,T/C,"dose: 282.0 mg/kg/injection, schedule: Q01DX007 (ip), vehicle: other",80 % of control
same,T/C,"dose: 423.0 mg/kg/injection, schedule: Q01DX007 (ip), vehicle: other",81 % of control
O=C(O)CCc1c[nH]c2ccc(N(CCCl)CCCl)cc12,T/C,[3],47 % of control
same,T/C,"dose: 4.0 mg/kg/injection, schedule: Q01DX007 (ip), vehicle: carboxymethylcellulose (CMC)",32 % of control
CC1CN1P(=O)(Oc1ccccc1)N1CC1C (centres undefined),T/C,"dose: 27.5 mg/kg/injection, schedule: Q#A X014 (ip), vehicle: saline",60 % of control and 67 % of control and 84 % of control
same,T/C,"dose: 62.5 mg/kg/injection, schedule: Q#A X014 (ip), vehicle: saline",13 % of control and 20 % of control
CCOC(=O)c1c(C#N)c(Cl)nc(C)c1[N+](=O)[O-],T/C,"dose: 3.0 mg/kg/injection, schedule: Q#A X014 (ip), vehicle: carboxymethylcellulose (CMC)",64 % of control
same,T/C,"dose: 6.0 mg/kg/injection, schedule: Q#A X014 (ip), vehicle: carboxymethylcellulose (CMC)",70 % of control
